The record followed here is ChEMBL document CHEMBL1130076, “Synthesis and in vitro evaluation of two progressive series of bifunctional polyhydroxybenzamide catechol-O-methyltransferase inhibitors” (J Med Chem, 1997).

Data set [1] deals with T1, Catechol O-methyltransferase (Sus scrofa, UniProt Q99028).
T1 sequence (Q99028 whole entry): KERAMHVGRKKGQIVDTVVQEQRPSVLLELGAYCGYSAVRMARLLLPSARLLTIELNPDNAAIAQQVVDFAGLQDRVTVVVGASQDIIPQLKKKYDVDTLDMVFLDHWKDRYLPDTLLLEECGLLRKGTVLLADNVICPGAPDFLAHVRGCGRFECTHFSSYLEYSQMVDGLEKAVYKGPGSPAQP
The data set is described as follows: In vitro inhibitory activity against Catechol-O-methyltransferase from porcine liver; Uncompetitive mode of inhibition.

Data set [2] addresses T1, Catechol O-methyltransferase. The data set is described as follows: In vitro inhibitory activity against Catechol-O-methyltransferase from porcine liver; Competitive mode of inhibition.
Compound in data set [3]: C[S+](CC[C@H](N)C(=O)[O-])C[C@H]1O[C@@H](n2cnc3c(N)ncnc32)[C@H](O)[C@@H]1O
The data set is described as follows: (§1) In vitro inhibitory activity against Catechol-O-methyltransferase from porcine liver. The note with it: Sus scrofa.

Compound in data set [4]: COC(=O)c1cc(O)c(O)c(O)c1
The data set is described as §1. The note with it: Sus scrofa.

Compound in data set [5]: O=C(NCCCCCCNC(=O)c1ccc(O)c(O)c1)c1ccc(O)c(O)c1
As to the kind of experiment: (§2) In vitro inhibitory activity against Catechol-O-methyltransferase from porcine liver; No inhibitory action. The note with it: Sus scrofa.

Compound in data set [6]: CCCNC(=O)c1ccc(O)c(O)c1
The description is as §2. The note with it: Sus scrofa.

Compound in data set [7]: O=C(NCCCCCNC(=O)c1ccc(O)c(O)c1)c1ccc(O)c(O)c1
Described as §2. The note with it: Sus scrofa.

Compound in data set [8]: O=C(NCCNC(=O)c1ccc(O)c(O)c1)c1ccc(O)c(O)c1
The description is as §2. The note with it: Sus scrofa.

Regarding `O=C(NCCCNC(=O)c1cc(O)c(O)c(O)c1)c1cc(O)c(O)c(O)c1`, the Ki (commonly a measure of affinity in units of concentration, obtained from inhibition or displacement) in data set [1] came out at 6.6 µM.
Molecule `O=C(NCCCCCCNC(=O)c1cc(O)c(O)c(O)c1)c1cc(O)c(O)c(O)c1` displayed a Ki in data set [1] of 35 µM.
`CCCNC(=O)c1cc(O)c(O)c(O)c1` came in with a Ki in data set [2] of 0.5 µM.
In data set [1], `O=C(NCCNC(=O)c1cc(O)c(O)c(O)c1)c1cc(O)c(O)c(O)c1` registered an inhibition constant Ki of 136 µM.
As for `O=C(NCCCNC(=O)c1ccc(O)c(O)c1)c1ccc(O)c(O)c1`, the Ki in data set [2] came to 0.3 µM.
In data set [1], `O=C(NCCCCCNC(=O)c1cc(O)c(O)c(O)c1)c1cc(O)c(O)c(O)c1` returned an inhibition constant Ki of 26.7 µM.

B1: Catechol O-methyltransferase (Sus scrofa), Q99028 (protein)
chain: T1 sequence (Q99028 whole entry)
On to B1, for which the Km (as a rule, the concentration of substrate that gives half-maximal velocity) stood at 44.6 µM in data set [3] and 25.5 µM in data set [4]. The COMT inhibitory activity result in data set [5], in data set [6], in data set [7] and in data set [8] was “No inhibitory action” in each case.
